Values joined by “and” are separate entries in the source; they are usually repeats but may differ in a detail not shown here. Equal entries are not always repeated. Toxic doses and inconclusive results are not listed.
Test system: P388 leukemia ip, CD2F1 mice, survival T/C
Assay: NCI In Vivo Anticancer Drug Screen. Data for tumor model P388 Leukemia (intraperitoneal) in CD2F1 (CDF1) mice
Details: endpoint: median survival time, higher = longer survival
Outline: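 Mice carrying the transplanted tumor received test compound or vehicle. Survival was recorded in each group, and the value is the treated-group measurement divided by that of the vehicle-treated control group.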

[1] = dose: 50.0 mg/kg/injection, schedule: Q01DX009 (ip), vehicle: saline with Tween-80
[2] = dose: 100.0 mg/kg/injection, schedule: Q01DX009 (ip), vehicle: saline with Tween-80
[3] = dose: 200.0 mg/kg/injection, schedule: Q01DX009 (ip), vehicle: saline with Tween-80
[4] = dose: 12.5 mg/kg/injection, schedule: Q01DX009 (ip), vehicle: other
[5] = dose: 25.0 mg/kg/injection, schedule: Q01DX009 (ip), vehicle: other
[6] = dose: 50.0 mg/kg/injection, schedule: Q01DX009 (ip), vehicle: other
[7] = dose: 50.0 mg/kg/injection, schedule: Q01DX009 (ip), vehicle: saline
[8] = dose: 50.0 mg/kg/injection, schedule: Q04DX003 (ip), vehicle: saline with Tween-80
[9] = dose: 100.0 mg/kg/injection, schedule: Q01DX001 (ip), vehicle: saline with Tween-80
[10] = dose: 200.0 mg/kg/injection, schedule: Q01DX001 (ip), vehicle: saline with Tween-80
[11] = dose: 400.0 mg/kg/injection, schedule: Q01DX001 (ip), vehicle: saline with Tween-80
[12] = dose: 50.0 mg/kg/injection, schedule: Q01DX005 (ip), vehicle: saline with Tween-80
[13] = dose: 200.0 mg/kg/injection, schedule: Q01DX005 (ip), vehicle: saline with Tween-80
[14] = dose: 60.0 mg/kg/injection, schedule: Q01DX005 (ip), vehicle: saline with Tween-80
[15] = dose: 120.0 mg/kg/injection, schedule: Q01DX005 (ip), vehicle: saline with Tween-80
[16] = dose: 240.0 mg/kg/injection, schedule: Q01DX005 (ip), vehicle: saline with Tween-80
[17] = dose: 100.0 mg/kg/injection, schedule: Q01DX009 (ip), vehicle: other
[18] = dose: 200.0 mg/kg/injection, schedule: Q01DX009 (ip), vehicle: other
[19] = dose: 25.0 mg/kg/injection, schedule: Q01DX009 (ip), vehicle: saline with Tween-80

CC1=CC=CC(C)(C(Cl)Cl)C1=O (centres undefined)
T/C [1]: 109 % of control | T/C [2]: 104 % of control | T/C [3]: 109 % of control

CC(C)c1ccc(C(CC(=O)c2ccccc2)C(C(=O)O)c2ccccc2)cc1 (centres undefined)
T/C (dose: 50.0 mg/kg/injection, schedule: Q01DX009 (ip), vehicle: Klucel (hydroxypropylcellulose) (HPC)): 97 % of control | T/C (dose: 100.0 mg/kg/injection, schedule: Q01DX009 (ip), vehicle: Klucel (hydroxypropylcellulose) (HPC)): 89 % of control | T/C (dose: 200.0 mg/kg/injection, schedule: Q01DX009 (ip), vehicle: Klucel (hydroxypropylcellulose) (HPC)): 89 % of control

c1ccc2oc(NCCSSCCNc3nc4ccccc4o3)nc2c1
T/C [4]: 100 % of control | T/C [5]: 92 % of control | T/C [6]: 86 % of control and 93 % of control

COC1=CC2C3Cc4c(-c5cc(OC)c(O)c6c5CC5C7C=C(OC)C(=O)CC67CCN5C)cc(OC)c(O)c4C2(CCN3C)CC1=O (centres undefined)
T/C [1]: 97 % of control | T/C [7]: 105 % of control | T/C [2]: 102 % of control | T/C (dose: 100.0 mg/kg/injection, schedule: Q01DX009 (ip), vehicle: saline): 94 % of control | T/C (dose: 100.0 mg/kg/injection, schedule: Q04DX003 (ip), vehicle: saline with Tween-80): 104 % of control | T/C (dose: 100.0 mg/kg/injection, schedule: Q04DX003 (ip), vehicle: saline): 95 % of control | T/C (dose: 200.0 mg/kg/injection, schedule: Q01DX009 (ip), vehicle: saline): 105 % of control | T/C (dose: 200.0 mg/kg/injection, schedule: Q04DX003 (ip), vehicle: saline with Tween-80): 106 % of control | T/C (dose: 200.0 mg/kg/injection, schedule: Q04DX003 (ip), vehicle: saline): 93 % of control | T/C (dose: 400.0 mg/kg/injection, schedule: Q04DX003 (ip), vehicle: saline with Tween-80): 95 % of control | T/C (dose: 400.0 mg/kg/injection, schedule: Q04DX003 (ip), vehicle: saline): 96 % of control

Nc1cc(C(=O)Nc2ccc(C3=NCCN3)cc2)ccc1C(=O)Nc1ccc(C2=NCCN2)cc1
T/C (dose: 20.0 mg/kg/injection, schedule: Q04DX003 (ip), vehicle: saline with Tween-80): 168 % of control | T/C (dose: 30.0 mg/kg/injection, schedule: Q04DX003 (ip), vehicle: saline with Tween-80): 204 % of control | T/C (dose: 44.0 mg/kg/injection, schedule: Q04DX003 (ip), vehicle: saline with Tween-80): 277 % of control | T/C (dose: 66.0 mg/kg/injection, schedule: Q04DX003 (ip), vehicle: saline with Tween-80): 181 % of control

CS(=O)(=O)OCCCCCCCCCOS(C)(=O)=O
T/C (dose: 12.5 mg/kg/injection, schedule: Q01DX009 (ip), vehicle: saline sonified): 109 % of control | T/C (dose: 25.0 mg/kg/injection, schedule: Q01DX009 (ip), vehicle: saline sonified): 122 % of control | T/C (dose: 33.0 mg/kg/injection, schedule: Q04DX003 (ip), vehicle: saline with Tween-80): 109 % of control | T/C (dose: 50.0 mg/kg/injection, schedule: Q01DX009 (ip), vehicle: saline sonified): 118 % of control | T/C [8]: 122 % of control | T/C (dose: 75.0 mg/kg/injection, schedule: Q04DX003 (ip), vehicle: saline with Tween-80): 159 % of control

C=C1OC(C2CCCCC2)=C(C(=O)OCC)C1C (centres undefined)
T/C [9]: 100 % of control | T/C [10]: 94 % of control | T/C [11]: 100 % of control

O=C(c1ccccc1)N1C=CC(=Cc2ccccc2)C=C1
T/C (dose: 1.56 mg/kg/injection, schedule: Q01DX009 (ip), vehicle: Klucel (hydroxypropylcellulose) (HPC)): 102 % of control | T/C (dose: 3.12 mg/kg/injection, schedule: Q01DX009 (ip), vehicle: Klucel (hydroxypropylcellulose) (HPC)): 106 % of control | T/C (dose: 6.25 mg/kg/injection, schedule: Q01DX009 (ip), vehicle: Klucel (hydroxypropylcellulose) (HPC)): 101 % of control and 96 % of control

COC1=CC=C2CC(=C1)CCC1C2CCC2(C)C(=O)CCC12 (centres undefined)
T/C (dose: 50.0 mg/kg/injection, schedule: Q01DX005 (ip), vehicle: Klucel (hydroxypropylcellulose) (HPC)): 100 % of control | T/C (dose: 100.0 mg/kg/injection, schedule: Q01DX005 (ip), vehicle: Klucel (hydroxypropylcellulose) (HPC)): 96 % of control | T/C (dose: 200.0 mg/kg/injection, schedule: Q01DX005 (ip), vehicle: Klucel (hydroxypropylcellulose) (HPC)): 91 % of control

COc1ccc2c(c1O)CN1CCc3cc4c(cc3C1C2)OCO4 (centres undefined)
T/C [12]: 104 % of control | T/C (dose: 100.0 mg/kg/injection, schedule: Q01DX005 (ip), vehicle: saline with Tween-80): 110 % of control | T/C [13]: 115 % of control

O=C(NCCN1CCNCC1)c1ccc(Cl)cc1
T/C [14]: 97 % of control | T/C [15]: 92 % of control | T/C [16]: 93 % of control

CC(=O)[O][Sn]([CH3])([CH3])[CH3]
T/C (dose: 0.37 mg/kg/injection, schedule: Q01DX009 (ip), vehicle: saline): 112 % of control | T/C (dose: 0.75 mg/kg/injection, schedule: Q01DX009 (ip), vehicle: saline): 112 % of control

COC(=O)c1ccc(Cl)cc1OC
T/C (dose: 12.5 mg/kg/injection, schedule: Q01DX009 (ip), vehicle: distilled water + Tween-80): 101 % of control | T/C (dose: 25.0 mg/kg/injection, schedule: Q01DX009 (ip), vehicle: distilled water + Tween-80): 99 % of control | T/C (dose: 50.0 mg/kg/injection, schedule: Q01DX009 (ip), vehicle: distilled water + Tween-80): 99 % of control | T/C (dose: 100.0 mg/kg/injection, schedule: Q01DX009 (ip), vehicle: distilled water + Tween-80): 101 % of control | T/C (dose: 200.0 mg/kg/injection, schedule: Q01DX009 (ip), vehicle: distilled water + Tween-80): 101 % of control

COC1=C(C)C2CC(=O)OC3C(O)C4C(C)CC(O)C(=O)C4(C)C(C1=O)C23C (centres undefined)
T/C (dose: 3.0 mg/kg/injection, schedule: Q01DX009 (ip), vehicle: alcohol): 105 % of control | T/C (dose: 6.0 mg/kg/injection, schedule: Q01DX009 (ip), vehicle: alcohol): 104 % of control | T/C (dose: 12.0 mg/kg/injection, schedule: Q01DX009 (ip), vehicle: alcohol): 107 % of control

C[Si](Cn1ccc(=O)[nH]c1=O)(c1ccccc1)c1ccccc1
T/C [9]: 109 % of control | T/C [10]: 100 % of control | T/C [11]: 95 % of control

CCCCCCCCCCCCCCCCC1(O)OC(=O)C(C)=C1C (centres undefined)
T/C (dose: 12.5 mg/kg/injection, schedule: Q04DX003 (ip), vehicle: saline with Tween-80): 100 % of control | T/C (dose: 25.0 mg/kg/injection, schedule: Q04DX003 (ip), vehicle: saline with Tween-80): 108 % of control | T/C [8]: 106 % of control

O=C(CNC(=O)NCc1ccco1)NNC(=O)Nc1ccc(F)c(Cl)c1
T/C [14]: 101 % of control | T/C [15]: 106 % of control | T/C [16]: 110 % of control

CCSC(C(OC(C)=O)C(OC(C)=O)C(OC(C)=O)C(COC(C)=O)OC(C)=O)n1cnc2c(=S)nc[nH]c21 (centres undefined)
T/C [12]: 107 % of control | T/C [13]: 87 % of control

c1ccc(Cc2cc[n+](Cc3ccccc3)cc2)cc1
T/C (dose: 12.5 mg/kg/injection, schedule: Q01DX009 (ip), vehicle: saline): 100 % of control | T/C (dose: 25.0 mg/kg/injection, schedule: Q01DX009 (ip), vehicle: saline): 101 % of control | T/C [7]: 101 % of control and 89 % of control

CCOC(=O)c1ccc2ccc(OC)c(OC)c2c1
T/C [4]: 95 % of control | T/C [5]: 97 % of control | T/C [6]: 104 % of control | T/C [17]: 95 % of control | T/C [18]: 104 % of control

ClC(Cl)(Cl)C1OCCOCCO1
T/C [2]: 109 % of control | T/C [3]: 100 % of control | T/C (dose: 400.0 mg/kg/injection, schedule: Q01DX009 (ip), vehicle: saline with Tween-80): 116 % of control

O.Oc1ccccc1C=NCCC[N-]CCCN=Cc1ccccc1O.[Co]
T/C (dose: 3.13 mg/kg/injection, schedule: Q01DX009 (ip), vehicle: saline with Tween-80): 102 % of control | T/C (dose: 6.25 mg/kg/injection, schedule: Q01DX009 (ip), vehicle: saline with Tween-80): 102 % of control | T/C (dose: 12.5 mg/kg/injection, schedule: Q01DX009 (ip), vehicle: saline with Tween-80): 123 % of control | T/C [19]: 100 % of control and 115 % of control

COC(=O)C(C)c1cc2ccccc2[nH]1 (centres undefined)
T/C [19]: 100 % of control | T/C [1]: 99 % of control | T/C [2]: 113 % of control

CC(C)(C)OC(=O)NNS(=O)(=O)CCC(NC(=O)OCc1ccccc1)C(=O)OCc1ccccc1 (centres undefined)
T/C [4]: 100 % of control | T/C [5]: 97 % of control | T/C [6]: 92 % of control | T/C [17]: 88 % of control | T/C [18]: 90 % of control
